For 24 compounds, Ki results are on record in ChEMBL document CHEMBL2375224, “Discovery of aryl-biphenyl-2-ylmethylpiperazines as novel scaffolds for 5-HT(7) ligands and role of the aromatic substituents in binding to the target receptor” (Bioorg Med Chem, 2013).

The structures appear in SMILES notation.

In the experiment the target is 5-hydroxytryptamine receptor 7 (Homo sapiens, UniProt P34969). Put plainly: Displacement of [3H]-LSD from 5HT7 receptor (unknown origin) expressed in CHOK1 cells. Type of experiment: cell-based, CHO-K1. In general terms: Loss of bound radioactivity is the signal in a displacement assay; it reports binding, not function.
Sequence of 5-hydroxytryptamine receptor 7 (P34969 whole entry): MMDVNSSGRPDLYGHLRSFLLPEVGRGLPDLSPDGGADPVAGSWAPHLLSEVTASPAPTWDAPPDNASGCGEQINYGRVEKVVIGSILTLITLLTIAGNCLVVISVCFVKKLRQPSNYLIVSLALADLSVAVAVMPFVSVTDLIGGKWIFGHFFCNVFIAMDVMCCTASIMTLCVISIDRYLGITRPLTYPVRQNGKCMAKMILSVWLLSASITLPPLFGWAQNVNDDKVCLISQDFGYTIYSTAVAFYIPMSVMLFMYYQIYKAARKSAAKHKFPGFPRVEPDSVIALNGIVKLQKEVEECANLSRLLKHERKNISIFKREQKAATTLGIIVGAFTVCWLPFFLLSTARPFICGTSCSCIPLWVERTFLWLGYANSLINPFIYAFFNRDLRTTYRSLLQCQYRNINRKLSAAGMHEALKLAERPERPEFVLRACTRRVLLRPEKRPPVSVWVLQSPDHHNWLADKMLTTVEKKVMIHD
As usually defined, the Ki is the equilibrium dissociation constant of an inhibitor or competing ligand from its target. A high value points to weaker binding. For the compound `COc1ccc(-c2ccccc2CN2CCN(c3ccccc3OC)CC2)cc1`, the affinity, expressed as Ki, was 0.046 µM.
`COc1ccc(N2CCN(Cc3ccccc3-c3ccccc3)CC2)cc1OC` gave a Ki of 1.85 µM.
For `Cc1ccccc1N1CCN(Cc2ccccc2-c2ccccc2)CC1` the value was 1.75 µM; for `Cc1cccc(N2CCN(Cc3ccccc3-c3ccccc3)CC2)c1`, 1.2 µM; for `Cc1ccc(N2CCN(Cc3ccccc3-c3ccccc3)CC2)cc1`, 2.76 µM.
`Cc1cccc(N2CCN(Cc3ccccc3-c3ccccc3)CC2)c1C` displayed a Ki greater than 10 µM.
Compound `Cc1ccc(N2CCN(Cc3ccccc3-c3ccccc3)CC2)c(C)c1` registered a Ki greater than 10 µM.
In the case of `Cc1ccc(C)c(N2CCN(Cc3ccccc3-c3ccccc3)CC2)c1`, the Ki is greater than 10 µM.
For `Cc1cc(C)cc(N2CCN(Cc3ccccc3-c3ccccc3)CC2)c1` the value was greater than 10 µM; for `FC(F)(F)c1cccc(N2CCN(Cc3ccccc3-c3ccccc3)CC2)c1`, 1.66 µM; for `COc1ccccc1N1CCN(Cc2ccccc2-c2ccccc2F)CC1`, 0.658 µM.
Under `COc1ccccc1N1CCN(Cc2ccccc2-c2ccccc2Cl)CC1` stands 0.297 µM.
With `COc1ccccc1N1CCN(Cc2ccccc2-c2cccc(Cl)c2)CC1`, the Ki is 0.219 µM.
For `COc1ccccc1N1CCN(Cc2ccccc2-c2ccc(Cl)cc2)CC1` the value was 0.22 µM; for `COc1ccccc1N1CCN(Cc2ccccc2-c2ccccc2C)CC1`, 0.311 µM; for `COc1ccccc1-c1ccccc1CN1CCN(c2ccccc2OC)CC1`, 0.043 µM.
Compound `COc1cccc(-c2ccccc2CN2CCN(c3ccccc3OC)CC2)c1` registered a Ki of 0.077 µM.
For `Fc1ccccc1N1CCN(Cc2ccccc2-c2ccccc2)CC1` the value was greater than 10 µM; for `Fc1cccc(N2CCN(Cc3ccccc3-c3ccccc3)CC2)c1`, greater than 10 µM.
Under `Fc1ccc(N2CCN(Cc3ccccc3-c3ccccc3)CC2)cc1` stands greater than 10 µM.
In turn, `Clc1ccccc1N1CCN(Cc2ccccc2-c2ccccc2)CC1` came in with a Ki greater than 10 µM.
For `Clc1ccc(N2CCN(Cc3ccccc3-c3ccccc3)CC2)cc1` the value was greater than 10 µM.
Regarding `COc1cccc(N2CCN(Cc3ccccc3-c3ccccc3)CC2)c1`, the Ki is greater than 10 µM.
For `COc1ccc(N2CCN(Cc3ccccc3-c3ccccc3)CC2)cc1` the value was greater than 10 µM.
